Converted amounts (≈) assume the structure as drawn. The source made the active and inactive calls. The calls are words filed in the database; no cut-off is given here.
Columns and labels:
[1] = test system: Mycobacterium tuberculosis; experiment: Binding affinity to N-terminal His-tagged Mycobacterium tuberculosis DprE1 assessed as molecular weight shift due to semimercaptal covalent DprE1 adduct formation at 400 uM incubated for 5 hrs in presence of FAD and FPR by deconvoluted mass spectrometry
[2] = test system: Mycobacterium tuberculosis; experiment: Antimycobacterial activity against Mycobacterium tuberculosis H37Rv ATCC 27294 after 5 days by microdilution method; type: functional; conditions: H37Rv ATCC 27294, 120 h
[3] = Inhibition of Mycobacterium tuberculosis DprE1 using farnesyl-phosphoryl-beta-D-ribofuranose as substrate preincubated for 30 mins before substrate addition by peroxidase coupled assay
[4] = test system: Salmonella typhimurium; experiment: Genotoxicity in Salmonella typhimurium TA100 at 50 ug/plate by Ames test in absence of S9 fraction; type: toxicity, organism-based; conditions: salmonella enterica subsp. enterica serovar typhimurium
[5] = test system: Salmonella typhimurium; experiment: Genotoxicity in Salmonella typhimurium TA98 at 50 ug/plate by Ames test in presence of S9 fraction; type: toxicity, organism-based; conditions: salmonella enterica subsp. enterica serovar typhimurium
[6] = test system: Salmonella typhimurium; experiment: Genotoxicity in Salmonella typhimurium TA100 at 16 ug/plate by Ames test in presence of S9 fraction; type: toxicity, organism-based; conditions: salmonella enterica subsp. enterica serovar typhimurium
[7] = test system: Salmonella typhimurium; experiment: Genotoxicity in Salmonella typhimurium TA98 at 160 ug/plate by Ames test in absence of S9 fraction; type: toxicity, organism-based; conditions: salmonella enterica subsp. enterica serovar typhimurium
[8] = test system: Mycobacterium tuberculosis; experiment: Antimycobacterial activity against Mycobacterium tuberculosis H37Rv ATCC 27294 infected in BMDM assessed as log reduction CFU after 7 days by killing kinetic assay; type: functional
[9] = test system: Mycobacterium tuberculosis; experiment: Antimycobacterial activity against Mycobacterium tuberculosis H37Rv ATCC 27294 infected in human THP1 cells assessed as log reduction CFU after 7 days by killing kinetic assay; type: functional, THP-1
[10] = target: T1, Cytochrome P450 1A2 (Homo sapiens, UniProt P05177); experiment: Inhibition of human recombinant CYP1A2 by fluorescence assay; type: ADME
T1 sequence (P05177 whole entry): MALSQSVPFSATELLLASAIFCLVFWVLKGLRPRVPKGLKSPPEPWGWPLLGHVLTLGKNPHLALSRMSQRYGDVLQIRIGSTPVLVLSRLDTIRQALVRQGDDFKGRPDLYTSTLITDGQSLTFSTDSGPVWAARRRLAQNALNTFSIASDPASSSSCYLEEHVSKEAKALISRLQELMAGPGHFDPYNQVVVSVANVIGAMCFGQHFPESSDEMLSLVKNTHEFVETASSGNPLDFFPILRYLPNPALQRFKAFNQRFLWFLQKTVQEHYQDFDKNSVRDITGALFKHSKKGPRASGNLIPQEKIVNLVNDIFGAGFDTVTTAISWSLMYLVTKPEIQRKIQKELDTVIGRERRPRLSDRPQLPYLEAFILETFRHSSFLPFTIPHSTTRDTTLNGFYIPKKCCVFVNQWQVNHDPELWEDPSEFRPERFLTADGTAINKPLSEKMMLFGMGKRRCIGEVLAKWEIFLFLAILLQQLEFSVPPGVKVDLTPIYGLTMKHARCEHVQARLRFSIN

[11] = target: Cytochrome P450 2D6 (Homo sapiens, UniProt P10635); experiment: Inhibition of human recombinant CYP2D6 by fluorescence assay; type: ADME
Cytochrome P450 2D6, sequence (P10635 whole entry): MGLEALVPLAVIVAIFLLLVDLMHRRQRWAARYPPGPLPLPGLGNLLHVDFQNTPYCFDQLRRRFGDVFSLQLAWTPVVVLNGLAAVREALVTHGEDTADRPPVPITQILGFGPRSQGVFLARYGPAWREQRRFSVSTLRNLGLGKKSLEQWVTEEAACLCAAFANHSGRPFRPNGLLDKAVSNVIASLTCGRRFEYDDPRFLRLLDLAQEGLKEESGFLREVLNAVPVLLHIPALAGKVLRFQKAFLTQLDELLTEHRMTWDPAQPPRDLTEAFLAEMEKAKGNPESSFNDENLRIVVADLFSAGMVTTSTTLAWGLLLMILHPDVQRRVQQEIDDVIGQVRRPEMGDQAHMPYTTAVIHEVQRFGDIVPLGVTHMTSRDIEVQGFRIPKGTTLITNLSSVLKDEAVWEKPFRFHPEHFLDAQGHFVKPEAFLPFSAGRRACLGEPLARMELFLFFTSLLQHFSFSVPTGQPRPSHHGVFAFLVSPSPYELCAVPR

[12] = target: Cytochrome P450 2C19 (Homo sapiens, UniProt P33261); experiment: Inhibition of human recombinant CYP2C19 by fluorescence assay; type: ADME
Cytochrome P450 2C19, sequence (P33261 whole entry): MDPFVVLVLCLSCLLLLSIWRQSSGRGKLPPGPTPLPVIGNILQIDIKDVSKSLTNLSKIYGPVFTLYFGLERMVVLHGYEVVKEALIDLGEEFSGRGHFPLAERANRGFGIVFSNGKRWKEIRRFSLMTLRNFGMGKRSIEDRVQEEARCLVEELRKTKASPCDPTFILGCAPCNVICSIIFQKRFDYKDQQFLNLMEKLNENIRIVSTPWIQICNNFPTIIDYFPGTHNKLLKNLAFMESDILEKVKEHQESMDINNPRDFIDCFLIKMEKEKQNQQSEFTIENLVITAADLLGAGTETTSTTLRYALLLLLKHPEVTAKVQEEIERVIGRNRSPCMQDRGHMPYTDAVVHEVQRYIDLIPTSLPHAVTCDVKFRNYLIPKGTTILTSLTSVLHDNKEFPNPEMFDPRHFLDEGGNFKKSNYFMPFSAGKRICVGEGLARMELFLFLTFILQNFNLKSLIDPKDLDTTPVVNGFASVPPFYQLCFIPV

[13] = target: Cytochrome P450 2C9 (Homo sapiens, UniProt P11712); experiment: Inhibition of human recombinant CYP2C9 by fluorescence assay; type: ADME; conditions: read-out: IC50
Cytochrome P450 2C9, sequence (P11712 whole entry): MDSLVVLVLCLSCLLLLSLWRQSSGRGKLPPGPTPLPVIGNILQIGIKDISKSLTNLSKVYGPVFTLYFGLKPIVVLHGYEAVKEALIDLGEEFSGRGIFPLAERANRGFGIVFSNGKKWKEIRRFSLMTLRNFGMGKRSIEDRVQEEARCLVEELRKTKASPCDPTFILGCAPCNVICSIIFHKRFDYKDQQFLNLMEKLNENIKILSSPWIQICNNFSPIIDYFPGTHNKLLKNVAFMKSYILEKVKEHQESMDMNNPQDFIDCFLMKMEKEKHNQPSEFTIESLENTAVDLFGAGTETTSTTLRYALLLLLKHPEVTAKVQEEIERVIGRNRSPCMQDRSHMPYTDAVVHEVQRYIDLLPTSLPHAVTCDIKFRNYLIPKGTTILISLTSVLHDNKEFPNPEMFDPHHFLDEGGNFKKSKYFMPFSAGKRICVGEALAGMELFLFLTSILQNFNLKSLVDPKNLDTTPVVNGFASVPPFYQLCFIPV

[14] = Aqueous solubility of the compound; type: physicochemical; conditions: buffer
[15] = test system: A549; experiment: Cytotoxicity against human A549 cells after 72 hrs by fluorescence assay; type: cell-based; conditions: A549, 72 h
[16] = Intrinsic clearance in mouse liver microsomes; type: ADME; conditions: read-out: CLH
[17] = target: Cytochrome P450 3A4 (Homo sapiens, UniProt P08684); experiment: Inhibition of human recombinant CYP3A4 by fluorescence assay; type: ADME
Cytochrome P450 3A4, sequence (P08684 whole entry): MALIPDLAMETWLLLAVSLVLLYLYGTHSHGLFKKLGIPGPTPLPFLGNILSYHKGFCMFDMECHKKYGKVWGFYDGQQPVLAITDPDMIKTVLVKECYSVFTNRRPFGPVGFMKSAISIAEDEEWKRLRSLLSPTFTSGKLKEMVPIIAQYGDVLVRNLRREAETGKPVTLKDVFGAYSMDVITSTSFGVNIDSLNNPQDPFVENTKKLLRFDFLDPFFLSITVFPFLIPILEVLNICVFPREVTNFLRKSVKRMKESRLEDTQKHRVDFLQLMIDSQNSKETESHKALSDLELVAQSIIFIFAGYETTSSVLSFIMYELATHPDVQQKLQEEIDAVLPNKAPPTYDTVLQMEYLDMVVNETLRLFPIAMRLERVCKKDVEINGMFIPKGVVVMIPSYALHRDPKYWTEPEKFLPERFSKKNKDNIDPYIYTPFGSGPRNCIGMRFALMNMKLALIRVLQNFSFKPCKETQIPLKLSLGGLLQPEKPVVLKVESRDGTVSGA

[18] = Fraction unbound in mouse plasma protein; type: ADME, cell-free
[19] = test system: Salmonella typhimurium; experiment: Genotoxicity in Salmonella typhimurium TA100 at 5000 ug/plate by Ames test in absence of S9 fraction; type: toxicity, organism-based; conditions: salmonella enterica subsp. enterica serovar typhimurium
[20] = Oral bioavailability in mouse; type: ADME, organism-based; conditions: in vivo
[21] = Intrinsic clearance in human liver microsomes; type: ADME; conditions: read-out: CLH
[22] = test system: Salmonella typhimurium; experiment: Genotoxicity in Salmonella typhimurium TA98 at 5000 ug/plate by Ames test in presence of S9 fraction; type: toxicity, organism-based; conditions: salmonella enterica subsp. enterica serovar typhimurium
[23] = test system: Salmonella typhimurium; experiment: Genotoxicity in Salmonella typhimurium TA100 at 5000 ug/plate by Ames test in presence of S9 fraction; type: toxicity, organism-based; conditions: salmonella enterica subsp. enterica serovar typhimurium
[24] = Clearance in iv dosed mouse; type: ADME, organism-based; conditions: in vivo
[25] = Volume of distribution at steady state in mouse; type: ADME, organism-based; conditions: in vivo, read-out: Vdss
[26] = AUC100 in po dosed mouse; type: ADME, organism-based; conditions: in vivo
[27] = test system: Salmonella typhimurium; experiment: Genotoxicity in Salmonella typhimurium TA98 at 5000 ug/plate by Ames test in absence of S9 fraction; type: toxicity, organism-based; conditions: salmonella enterica subsp. enterica serovar typhimurium
[28] = test system: Salmonella typhimurium; experiment: Genotoxicity in Salmonella typhimurium TA100 at 16 ug/plate by Ames test in absence of S9 fraction; type: toxicity, organism-based; conditions: salmonella enterica subsp. enterica serovar typhimurium
[29] = test system: Salmonella typhimurium; experiment: Genotoxicity in Salmonella typhimurium TA98 at 1600 ug/plate by Ames test in presence of S9 fraction; type: toxicity, organism-based; conditions: salmonella enterica subsp. enterica serovar typhimurium
[30] = test system: Salmonella typhimurium; experiment: Genotoxicity in Salmonella typhimurium TA98 at 1600 ug/plate by Ames test in absence of S9 fraction; type: toxicity, organism-based; conditions: salmonella enterica subsp. enterica serovar typhimurium

O=C(NCc1cccnc1)c1sc2c([N+](=O)[O-])cc(C(F)(F)F)cc2[n+]1[O-]
Activity [1]: Active | MIC [2]: 0.03 µg/mL (≈ 0.0753 µM)

Cc1c(C(F)(F)F)cc2nc(C(=O)NCc3ccccn3)sc2c1[N+](=O)[O-]
IC50 [3]: 1.2 µM | MIC [2]: 0.3 µg/mL (≈ 0.757 µM)

CNC(=O)c1cc([N+](=O)[O-])c2sc(C(=O)N3CCCCC3)nc2c1
IC50 [3]: 53 µM | MIC [2]: 32 µg/mL (≈ 91.9 µM)

O=[N+]([O-])c1cc(C(F)(F)F)cc2c1sc(C1=NCCO1)[n+]2[O-]
Activity [4]: Toxic | Activity [5]: Toxic | IC50 [3]: 0.276 µM | Activity [6]: Toxic | MIC [2]: 0.4 µg/mL (≈ 1.2 µM) | Activity [7]: Toxic

Cc1c(C(F)(F)F)cc2nc(C(=O)N[C@@H](CCO)C(=O)N3CCCCC3)sc2c1[N+](=O)[O-]
Activity [8]: 1 log10CFU/ml | IC50 [3]: 1.2 µM | MIC [2]: 0.7 µg/mL (≈ 1.48 µM) | Activity [9]: 1 log10CFU/ml

O=C(NCc1ccccn1)c1nc2cc(C(F)(F)F)ccc2s1
IC50 [3]: > 100 µM | MIC [2]: > 32 µg/mL

O=C(c1sc2c([N+](=O)[O-])cc(C(F)(F)F)cc2[n+]1[O-])N1CCCCC1
IC50 [10]: 14.7 µM | Activity [4]: Toxic | IC50 [11]: 1.21 µM | Activity [5]: Toxic | IC50 [12]: 17.7 µM | IC50 [3]: 0.095 µM | Activity [6]: Toxic | IC50 [13]: 26.6 µM | MIC [2]: 0.03 µg/mL (≈ 0.0799 µM) | solubility [14]: 84.7 µM (≈ 31.8 µg/mL) | IC50 [15]: 24 µM | microsomal CLint [16]: 102 µL/min/mg | Activity [7]: Toxic | IC50 [17]: 3.91 µM | fraction unbound [18]: 0.103

Cc1c(C(F)(F)F)cc2nc(C3=N[C@H](C(=O)N4CCCC4)CO3)sc2c1[N+](=O)[O-]
Activity [19]: Non-toxic | bioavailability [20]: 22.5% | microsomal CLint [21]: 9.6 µL/min/mg | IC50 [10]: > 100 µM | Activity [22]: Non-toxic | Activity [23]: Non-toxic | clearance [24]: 83.5 mL/min/kg | Vd [25]: 3.5 L/kg | IC50 [11]: > 100 µM | IC50 [12]: 73.5 µM | IC50 [3]: 1.2 µM | IC50 [13]: 22.1 µM | MIC [2]: 2 µg/mL (≈ 4.67 µM) | AUC [26]: 10200 ng·h/mL | solubility [14]: 12 µM (≈ 5.14 µg/mL) | Activity [27]: Non-toxic | IC50 [15]: > 100 µM | microsomal CLint [16]: 37.9 µL/min/mg | IC50 [17]: > 100 µM | fraction unbound [18]: 0.063

O=C([C@@H]1COC(c2nc3cc(C(F)(F)F)cc([N+](=O)[O-])c3s2)=N1)N1CCCC1
bioavailability [20]: 27% | microsomal CLint [21]: 5.3 µL/min/mg | IC50 [10]: 53.1 µM | Activity [28]: Toxic | clearance [24]: 49 mL/min/kg | Vd [25]: 1.44 L/kg | IC50 [11]: 3.4 µM | IC50 [12]: 24.2 µM | IC50 [3]: 0.654 µM | Activity [29]: Toxic | Activity [6]: Toxic | IC50 [13]: 12.4 µM | MIC [2]: 1.4 µg/mL (≈ 3.38 µM) | AUC [26]: 9180 ng·h/mL | solubility [14]: 64.6 µM (≈ 26.8 µg/mL) | IC50 [15]: 82 µM | Activity [30]: Toxic | microsomal CLint [16]: 76.6 µL/min/mg | IC50 [17]: 18.6 µM | fraction unbound [18]: 0.06

O=C(N[C@@H](CO)C(=O)N1CCCC1)c1nc2cc(C(F)(F)F)cc([N+](=O)[O-])c2s1
IC50 [3]: 0.349 µM | MIC [2]: 0.35 µg/mL (≈ 0.809 µM)

O=C(c1nc2cc(C(F)(F)F)cc(-[n+]3cc([O-])on3)c2s1)N1CCCCC1
IC50 [3]: 28.2 µM | MIC [2]: 32 µg/mL (≈ 80.3 µM)

N#Cc1cc(C(F)(F)F)cc2nc(C(=O)N3CCCCC3)sc12
MIC [2]: > 32 µg/mL

O=C(c1nc2cc(C(F)(F)F)cc([N+](=O)[O-])c2s1)N1CCOCC1
IC50 [3]: 0.3 µM | MIC [2]: 0.1 µg/mL (≈ 0.277 µM)

Cc1c(C(F)(F)F)cc2nc(C3=NCCO3)sc2c1[N+](=O)[O-]
Activity [19]: Non-toxic | Activity [22]: Non-toxic | Activity [23]: Non-toxic | IC50 [3]: 3.9 µM | MIC [2]: 8 µg/mL (≈ 24.1 µM) | Activity [27]: Non-toxic

Source: ChEMBL document CHEMBL3739380, “Discovery of benzothiazoles as antimycobacterial agents: Synthesis, structure-activity relationships and binding studies with Mycobacterium tuberculosis decaprenylphosphoryl-β-D-ribose 2'-oxidase” (Bioorg Med Chem, 2015)
